PubChem BioAssay AID1963424 (Molecular Pharmacology Branch, DTP, NCI, 2024)
Several values for one entry are separate records, joined by “and”; a condition that tells them apart may be missing. Equal entries are not always repeated.

Tested on: 327498-153-R-J2-PDC complex spheroid growth, % test/control
Assay: Anticancer human tumor 327498-153-R-J2-PDC patient-derived uterine carcinosarcoma cell line growth inhibition [Asc]
Conditions: for viability, T/C: stronger effect = lower value
Summary of the method: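 Tumor cells were grown as complex spheroids with human endothelial cells (HUVEC) and human mesenchymal stem cells as stroma. Agents were tested alone and in combination, in half-log steps down from the clinical Cmax, or from 10 microM where Cmax was unknown.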

[1] = curve of first compound, second compound 0.1 µM
[2] = curve of first compound, second compound 0.316 µM
[3] = curve of first compound, second compound 1 µM
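Further: spheroids exposed to compound for 7 days after 3 days of growth.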
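Wherever viability, T/C is given: 100% = DMSO vehicle control wells.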

In the case of `Cc1nc(N2CCC3(CC2)COC(C)C3N)c(CO)nc1Sc1ccnc(N)c1Cl` (stereo not drawn) + CNC(C)C(=O)NC1CN(S(=O)(=O)c2cccc(S(=O)(=O)N3CCC4CCC(C(=O)NC(c5ccccc5)c5ccccc5)N4C(=O)C(NC(=O)C(C)NC)C3)c2)CCC2CCC(C(=O)NC(c3ccccc3)c3ccccc3)N2C1=O, the IC50 (curve of first compound, second compound 0.01 µM) is reported as > 3000 nM, the IC50 (curve of first compound, second compound 0.0316 µM) is reported as 1550 nM and the IC50 [1] is reported as > 3000 nM. For the same compound, the IC50 [2] was > 3000 nM, the IC50 [3] was > 3000 nM and the viability, T/C (second compound 0.01 µM, first compound 0.00949 µM) was 102%. The viability, T/C (second compound 0.01 µM, first compound 0.03 µM) was 101%, the viability, T/C (second compound 0.01 µM, first compound 0.0949 µM) was 82.3% and the viability, T/C (second compound 0.01 µM, first compound 0.3 µM) was 71.6%. It also gave a viability, T/C (second compound 0.01 µM, first compound 0.949 µM) of 66.8%, a viability, T/C (second compound 0.01 µM, first compound 3 µM) of 48.7% and a viability, T/C (second compound 0.0316 µM, first compound 0.00949 µM) of 95.7%. The viability, T/C (second compound 0.0316 µM, first compound 0.03 µM) was 90.2%, the viability, T/C (second compound 0.0316 µM, first compound 0.0949 µM) was 81.6% and the viability, T/C (second compound 0.0316 µM, first compound 0.3 µM) was 72.2%. The viability, T/C (second compound 0.0316 µM, first compound 0.949 µM) was 53.1%, the viability, T/C (second compound 0.0316 µM, first compound 3 µM) was 44% and the viability, T/C (second compound 0.1 µM, first compound 0.00949 µM) was 97.4%. The viability, T/C (second compound 0.1 µM, first compound 0.03 µM) was 92.7%, the viability, T/C (second compound 0.1 µM, first compound 0.0949 µM) was 87.8% and the viability, T/C (second compound 0.1 µM, first compound 0.3 µM) was 68.5%. For the same compound, the viability, T/C (second compound 0.1 µM, first compound 0.949 µM) was 56.2%, the viability, T/C (second compound 0.1 µM, first compound 3 µM) was 59.9% and the viability, T/C (second compound 0.316 µM, first compound 0.00949 µM) was 96.1%. For the same compound, the viability, T/C (second compound 0.316 µM, first compound 0.03 µM) was 93.5%, the viability, T/C (second compound 0.316 µM, first compound 0.0949 µM) was 91% and the viability, T/C (second compound 0.316 µM, first compound 0.3 µM) was 75.8%. The viability, T/C (second compound 0.316 µM, first compound 0.949 µM) was 63.7%, the viability, T/C (second compound 0.316 µM, first compound 3 µM) was 50% and the viability, T/C (second compound 1 µM, first compound 0.00949 µM) was 94.3%. It also gave a viability, T/C (second compound 1 µM, first compound 0.03 µM) of 87.7%, a viability, T/C (second compound 1 µM, first compound 0.0949 µM) of 78.6% and a viability, T/C (second compound 1 µM, first compound 0.3 µM) of 72.3%. For the same compound, the viability, T/C (second compound 1 µM, first compound 0.949 µM) was 59.8% and the viability, T/C (second compound 1 µM, first compound 3 µM) was 52.1%.

In the case of `O=C(c1ccc(F)c(F)c1Nc1ccc(I)cc1F)N1CC(O)([C@@H]2CCCCN2)C1` + CCN1C(C(=O)NC23CCC(C(=O)O)(CC2)CC3)C(c2cccc(Cl)c2F)C2(C(=O)Nc3cc(Cl)ccc32)C12CCCCC2, the IC50 (curve of first compound, second compound 0.03 µM) is reported as 227 nM, the IC50 (curve of first compound, second compound 0.0949 µM) is reported as 47.8 nM and the IC50 (curve of first compound, second compound 0.3 µM) is reported as < 3.16 nM. The IC50 (curve of first compound, second compound 0.949 µM) was < 3.16 nM, the IC50 (curve of first compound, second compound 3 µM) was < 3.16 nM and the viability, T/C (second compound 0.03 µM, first compound 0.00316 µM) was 98.2%. The viability, T/C (second compound 0.03 µM, first compound 0.01 µM) was 85%, the viability, T/C (second compound 0.03 µM, first compound 0.0316 µM) was 70.5% and the viability, T/C (second compound 0.03 µM, first compound 0.1 µM) was 64.5%. The viability, T/C (second compound 0.03 µM, first compound 0.316 µM) was 50.3%, the viability, T/C (second compound 0.03 µM, first compound 1 µM) was 16% and the viability, T/C (second compound 0.0949 µM, first compound 0.00316 µM) was 67%. It also gave a viability, T/C (second compound 0.0949 µM, first compound 0.01 µM) of 61.4%, a viability, T/C (second compound 0.0949 µM, first compound 0.0316 µM) of 55.3% and a viability, T/C (second compound 0.0949 µM, first compound 0.1 µM) of 41.3%. It also gave a viability, T/C (second compound 0.0949 µM, first compound 0.316 µM) of 28.4%, a viability, T/C (second compound 0.0949 µM, first compound 1 µM) of 8.51% and a viability, T/C (second compound 0.3 µM, first compound 0.00316 µM) of 37.2%. It also gave a viability, T/C (second compound 0.3 µM, first compound 0.01 µM) of 29.1%, a viability, T/C (second compound 0.3 µM, first compound 0.0316 µM) of 17.3% and a viability, T/C (second compound 0.3 µM, first compound 0.1 µM) of 15.7%. The viability, T/C (second compound 0.3 µM, first compound 0.316 µM) was 11.1%, the viability, T/C (second compound 0.3 µM, first compound 1 µM) was 3.71% and the viability, T/C (second compound 0.949 µM, first compound 0.00316 µM) was 8.99%. For the same compound, the viability, T/C (second compound 0.949 µM, first compound 0.01 µM) was 6.26%, the viability, T/C (second compound 0.949 µM, first compound 0.0316 µM) was 4.91% and the viability, T/C (second compound 0.949 µM, first compound 0.1 µM) was 4.3%. It also gave a viability, T/C (second compound 0.949 µM, first compound 0.316 µM) of 2.73%, a viability, T/C (second compound 0.949 µM, first compound 1 µM) of 1.43% and a viability, T/C (second compound 3 µM, first compound 0.00316 µM) of 3.41%. The viability, T/C (second compound 3 µM, first compound 0.01 µM) was 1.87%, the viability, T/C (second compound 3 µM, first compound 0.0316 µM) was 2.1% and the viability, T/C (second compound 3 µM, first compound 0.1 µM) was 1.08%. It also gave a viability, T/C (second compound 3 µM, first compound 0.316 µM) of 1.35% and a viability, T/C (second compound 3 µM, first compound 1 µM) of 0.86%.

`Cn1ncnc1[C@H]1c2n[nH]c(=O)c3cc(F)cc(c23)N[C@@H]1c1ccc(F)cc1` + Cc1c(S(C)(=O)=O)c(-c2cc(F)cc(N3CCN(c4ccc(NS(=O)(=O)c5ccc(NC(CCN6CCC(C(=O)OCCCP(=O)(O)O)CC6)CSc6ccccc6)c(S(=O)(=O)C(F)(F)F)c5)cc4)CC3)c2)c(-c2ccc(Cl)cc2)n1C(C)C gave an IC50 [1] of 10.9 nM, an IC50 [2] of 11.4 nM and an IC50 [3] of 7.37 nM. The IC50 (curve of first compound, second compound 3.16 µM) was 8.06 nM, the IC50 (curve of first compound, second compound 10 µM) was 10.3 nM and the viability, T/C (second compound 0.1 µM, first compound 0.000316 µM) was 103%. The viability, T/C (second compound 0.1 µM, first compound 0.001 µM) was 97.1%, the viability, T/C (second compound 0.1 µM, first compound 0.00316 µM) was 89.5% and the viability, T/C (second compound 0.1 µM, first compound 0.01 µM) was 51.4%. For the same compound, the viability, T/C (second compound 0.1 µM, first compound 0.0316 µM) was 19.3%, the viability, T/C (second compound 0.1 µM, first compound 0.1 µM) was 7.05% and the viability, T/C (second compound 0.316 µM, first compound 0.000316 µM) was 92.6%. It also gave a viability, T/C (second compound 0.316 µM, first compound 0.001 µM) of 84.5%, a viability, T/C (second compound 0.316 µM, first compound 0.00316 µM) of 86.9% and a viability, T/C (second compound 0.316 µM, first compound 0.01 µM) of 54%. For the same compound, the viability, T/C (second compound 0.316 µM, first compound 0.0316 µM) was 14.9%, the viability, T/C (second compound 0.316 µM, first compound 0.1 µM) was 6.5% and the viability, T/C (second compound 1 µM, first compound 0.000316 µM) was 99.3%. It also gave a viability, T/C (second compound 1 µM, first compound 0.001 µM) of 104%, a viability, T/C (second compound 1 µM, first compound 0.00316 µM) of 81.7% and a viability, T/C (second compound 1 µM, first compound 0.01 µM) of 37.7%. For the same compound, the viability, T/C (second compound 1 µM, first compound 0.0316 µM) was 15.3%, the viability, T/C (second compound 1 µM, first compound 0.1 µM) was 5.39% and the viability, T/C (second compound 3.16 µM, first compound 0.000316 µM) was 92.7%. For the same compound, the viability, T/C (second compound 3.16 µM, first compound 0.001 µM) was 91.6%, the viability, T/C (second compound 3.16 µM, first compound 0.00316 µM) was 80.3% and the viability, T/C (second compound 3.16 µM, first compound 0.01 µM) was 42.2%. For the same compound, the viability, T/C (second compound 3.16 µM, first compound 0.0316 µM) was 14.9%, the viability, T/C (second compound 3.16 µM, first compound 0.1 µM) was 4.76% and the viability, T/C (second compound 10 µM, first compound 0.000316 µM) was 174%. The viability, T/C (second compound 10 µM, first compound 0.001 µM) was 178%, the viability, T/C (second compound 10 µM, first compound 0.00316 µM) was 150% and the viability, T/C (second compound 10 µM, first compound 0.01 µM) was 50.1%. The viability, T/C (second compound 10 µM, first compound 0.0316 µM) was 18.2% and the viability, T/C (second compound 10 µM, first compound 0.1 µM) was 5.74%.

`CCN1C(C(=O)NC23CCC(C(=O)O)(CC2)CC3)C(c2cccc(Cl)c2F)C2(C(=O)Nc3cc(Cl)ccc32)C12CCCCC2` (stereo not drawn) was tested, and the viability, T/C (compound 0.00949 µM) was 90.4% and 97.6%, the viability, T/C (compound 0.03 µM) was 88.7% [middle of 15 runs] and the viability, T/C (compound 0.0949 µM) was 74.7% [middle of 15 runs]. For the same compound, the viability, T/C (compound 0.3 µM) was 40.5% [middle of 15 runs], the viability, T/C (compound 0.949 µM) was 11.1% [middle of 15 runs] and the viability, T/C (compound 3 µM) was 4% [middle of 15 runs]. The IC50 (compound alone, run of 09/27/2022) was 211 nM [middle of 13 runs] and the IC50 (curve of compound) was 174 nM and 252 nM.
